Laboratory results published in US20240336577A1, “PYRAZINE COMPOUND, AND METHOD OF PREPARATION AND USE THEREOF” (SHENZHEN OLIVE BIOPHARMACEUTICALS CO., LTD, priority 2020, published 2024).

Key:
Type in all cases: in vivo
[1] = test system: db/db mice; assay: Glucose and lipid metabolism in db/db mice, 56 d administration; settings: once/d 56 d, TMP 5.0 mg/kg, mean±SEM, n=6; for Creatinine / Total cholesterol / Triglyceride / Urea: Losartan 10 mg/kg; for Creatinine / Total cholesterol / Triglyceride / Urea / Glucose determination / High-density lipoprotein cholesterol / Low-density lipoprotein cholesterol: OLB-1/OLB-2 13.32 mg/kg; for Glycated hemoglobin / Glucose determination / High-density lipoprotein cholesterol / Low-density lipoprotein cholesterol: metformin 225 mg/kg/d; for Glycated hemoglobin: OLB-1/OLB-2 13.32 mg/kg (0.037 mmol/kg)
Experimental: Mice of a normal control group and model mice were given normal saline 10 ml/kg/d, metformin hydrochloride enteric-coated tablets 225 mg/kg/d, Losartan 10 mg/kg, TMP (5.0 mg/kg, 0.037 mmol/kg), and OLB-1 and OLB-2 (13.32 mg/kg, 0.037 mmol/kg), at a volume of 10 mL/kg, once/d, for continuous administration of 56 d, blood lipids and blood glucose related indexes were measured after blood collection. Data were presented as mean±SEM; n=6 per group. One-way ANOVA and multiple range test were adopted to show differences between the two groups. a, p<0.05 vs. db/db group; c, p<0.001 vs. db/db group.

[2] = test system: db/db mice; assay: Biochemical and metabolic indicators in db/db mice, 90 d administration; settings: once/d 90 d, Losartan 15 mg/kg/d, TMP 5.0 mg/kg, OLB-1 2.31 mg/kg, OLB-2 2.3 mg/kg, mean±SEM, n=6
[3] = test system: 5*FAD mice; assay: Pro-inflammatory factors in hippocampus of 5*FAD mice, ELISA; settings: 6-month-old 5*FAD mice treated 3 months, low and high dosage; FIG. 3 and FIG. 4
Experimental: After 6-month-old 5*FAD mice were treated with OLB-1 and OLB-2 for 3 months, the levels of IL-1β (A) and TNFα (B) in mouse hippocampus were detected by ELISA. 5*FAD mice were treated with low-dosage and high-dosage OLB-1 (low dosage: 2.31 mg/kg, 0.007 mmol/kg; high dosage: 11.70 mg/kg, 0.037 mmol/kg, the same below) and OLB-2 (low dosage: 2.3 mg/kg, 0.007 mmol/kg; high dosage: 11.67 mg/kg, 0.037 mmol/kg, the same below) and TMP (5.0 mg/kg, 0.037 mmol/kg, the same below). Data were presented as mean±SEM; n=5 to 6 per group. One-way ANOVA and multiple range test were adopted to show differences between the two groups. **p<0.01, ***p<0.001 vs. WT group; #p<0.05, ##p<0.01, ###p<0.001 vs. 5*FAD group.

Question: With Cc1nc(C)c(COC(=O)OCCc2ccc(O)cc2)nc1C [OLB-1] as the compound, how does the Creatinine [1] read?
Answer: 48.7 ± 3.68(a) μmol/L

Question: And the Total cholesterol [1]?
Answer: 8.36 ± 2.63(c) mM

Question: And the Triglyceride [1]?
Answer: 10.88 ± 0.92(b) mg/dL

Question: And the Urea [1]?
Answer: 8.03 ± 0.61(c) mmol/L

Question: What about the Glycated hemoglobin [1] of the same compound?
Answer: 643.06 ± 61.53(c) nmol/L

Question: And the Glucose determination [1]?
Answer: 25.99 ± 4.46(c) mM

Question: And the High-density lipoprotein cholesterol [1]?
Answer: 1.81 ± 0.15(b) mM

Question: What about the Low-density lipoprotein cholesterol [1] of the same compound?
Answer: 0.69 ± 0.04(c) mM

Question: And the Creatinine [2]?
Answer: 48.7 ± 3.68(a) μmol/L

Question: And the Urea [2]?
Answer: 8.03 ± 0.61(c) mmol/L

Question: And the Urine albumin/creatinine [2]?
Answer: 438.69 ± 83.23(c) mg/g

Question: And the “proinflammatory cytokine IL-1β in hippocampus” value [3]?
Answer: significantly reduced

Question: What about the “proinflammatory cytokine TNF-α in hippocampus” value [3] of the same compound?
Answer: significantly reduced

Question: Which results are given for Cc1nc(C)c(CNC(=O)OCCc2ccc(O)cc2)nc1C [OLB-2]?
Answer: Creatinine [1]: 46.28 ± 2.76(b) μmol/L; Total cholesterol [1]: 7.38 ± 0.34(c) mM; Triglyceride [1]: 10.65 ± 0.54(b) mg/dL; Urea [1]: 7.48 ± 0.35(c) mmol/L; Glycated hemoglobin [1]: 595.38 ± 52.47(c) nmol/L; Glucose determination [1]: 26.61 ± 1.15(c) mM; High-density lipoprotein cholesterol [1]: 1.87 ± 0.18(b) mM; Low-density lipoprotein cholesterol [1]: 0.51 ± 0.03(c) mM; Creatinine [2]: 46.28 ± 2.76(b) μmol/L; Urea [2]: 7.48 ± 0.35(c) mmol/L; Urine albumin/creatinine [2]: 477.51 ± 90.68(c) mg/g; proinflammatory cytokine IL-1β in hippocampus [3]: significantly reduced; proinflammatory cytokine TNF-α in hippocampus [3]: significantly reduced
